# Tested on: Clostridium ljungdahlii
# Experiment: Autotrophic production of ethanol and acetate in carbonate buffer on synthesis gas with varying L-cysteine HCl (Example 1)
# Type: cell-based
# Description: For the production, anaerobic carbonate buffer (adjusted with KOH 1.4 g/L) was used. The only addition to the buffer was L-cysteine HCl at different concentrations.
# For identical autotrophic productions, 500 mL septum bottles were filled with 100 mL carbonate buffer and shaken at 150 min^−1 in an open shaking water bath shaker Innova 3100 by New Brunswick Scientific. The reactions were carried out at 37° C. with manual control of the pH. Once the pH dropped below 5.5, KOH was replenished from a stock solution of 140 g/L. In the present experiments the pH in both reactors were checked at the following points in time 50.3 h, 73.3 h and corrected by the addition of each 1.4 g/L KOH manually.
# The reactors were inoculated with a synthesis gas mixture of 67% H2 and 33% CO2 and pressure of 0.8 bar applied. To replenish the depleted gas, the gas above the reactors was replaced once a day and again the pressure brought to 0.8 bars.
# The reactor was started by seeding autotrophic grown cells at an OD of 0.2. The preculture was carried out continuously in a 1 L bottle with 500 mL complex medium. The complex medium consisting of 1 g/lNH4Cl, 0.1 g/l KCl, 0.2 g/l MgSO4 ×7 H2O, 0.8 g/l NaCl, 0.1 g/l KH2PO4, 20 mg/l CaCl2 ×2 H2O, 20 g/l MES, 1 g/l yeast extract, 0.4 g/L L-Cysteine-HC1, 20 mg/l nitrilotriacetic acid, 10 mg/l MnSO4×H2O, 8 mg/l (NH4)2Fe(SO4)2×6 H2O, 2 mg/l CoCl2×6 H2O, 2 mg/l ZnSO4 33 7 H2O, 0.2 mg/l CuCl 2 33 2 H2O, 0.2 mg/l Na2MoO4×2 H2O, 0.2 mg/l NiCl2×6 H2O, 0.2 mg/l Na2SeO4, 0.2 mg/l Na2WO4×2 H2O, 20 μg/l d-Biotin, 20 μg/l folic acid, 100 μg/l pyridoxine HCl, 50μg/l thiamine-HCl×H2O, 50 μg l of riboflavin, 50 μg/l nicotinic acid, 50 μg/l Ca-pantothenate, 1 μg/l vitamin B12, 50μg/l p-aminobenzoate, 50 μg/l lipoic acid. The culture was then gassed continuously with synthesis gas (67% H2, 33% CO2) at a flow rate of 3 l/h over a filter with pore size 10 microns. The cells were in late log phase growth at an OD of 0.37 and where anaerobically centrifuged (4500 rpm, 4300 g, 20° C., 10 min). The supernatant was discarded and the cell pellet resuspended in 10 ml carbonate buffer. The prepared cells were then used to inoculate the actual tests.
# When sampling each 5 ml sample was removed for determination of OD600, pH and the product spectrum. The determination of the product concentration was performed using quantitative 1H-NMR spectroscopy. As an internal quantification standard sodium trimethylsilylpropionate was used (T(M)SP).
# [1] = reactor 1, 0.1 g/L L-Cysteine-HCl, 150 min-1, 0.0 h
# [2] = reactor 1, 0.1 g/L L-Cysteine-HCl, 150 min-1, 24.5 h
# [3] = reactor 1, 0.1 g/L L-Cysteine-HCl, 150 min-1, 50.3 h
# [4] = reactor 1, 0.1 g/L L-Cysteine-HCl, 150 min-1, 73.3 h
# [5] = reactor 1, 0.1 g/L L-Cysteine-HCl, 150 min-1, 92.3 h
# [6] = reactor 2, 0.4 g/L L-Cysteine-HCl, 150 min-1, 0.0 h
# [7] = reactor 2, 0.4 g/L L-Cysteine-HCl, 150 min-1, 24.5 h
# [8] = reactor 2, 0.4 g/L L-Cysteine-HCl, 150 min-1, 50.3 h
# [9] = reactor 2, 0.4 g/L L-Cysteine-HCl, 150 min-1, 73.3 h
# [10] = reactor 2, 0.4 g/L L-Cysteine-HCl, 150 min-1, 92.3 h
smiles,measurement,setting,value
"Cl.N[C@@H](CS)C(=O)O [L-Cysteine-HCl, L-cysteine hydrochloride]",concentrations of ethanol and acetate,"0.1 g/L compared with 0.4 g/L L-cysteine-HCl, after 92.3 h",higher
same,Acetate (NMR),[1],13 mg/L
same,Ethanol (NMR),[1],6 mg/L
same,OD600,[1],0.25
same,Acetate (NMR),[2],1418 mg/L
same,Ethanol (NMR),[2],19 mg/L
same,OD600,[2],0.25
same,Δp,[2],0.6 bar
same,Acetate (NMR),[3],2556 mg/L
same,Ethanol (NMR),[3],130 mg/L
same,OD600,[3],0.30
same,Δp,[3],0.6 bar
same,OD600,[4],0.30
same,Δp,[4],0.6 bar
same,Acetate (NMR),[5],6960 mg/L
same,Ethanol (NMR),[5],321 mg/L
same,OD600,[5],0.26
same,Δp,[5],0.4 bar
same,total gas consumption,"reactor 1 with 0.1 g/L compared with reactor with 0.4 g/L L-cysteine-HCl, over 92.3 h",higher
same,Acetate (NMR),[6],15 mg/L
same,Ethanol (NMR),[6],8 mg/L
same,OD600,[6],0.24
same,Acetate (NMR),[7],2331 mg/L
same,Ethanol (NMR),[7],27 mg/L
same,OD600,[7],0.23
same,Δp,[7],0.6 bar
same,Acetate (NMR),[8],3197 mg/L
same,Ethanol (NMR),[8],128 mg/L
same,OD600,[8],0.26
same,Δp,[8],0.5 bar
same,OD600,[9],0.22
same,Δp,[9],0.3 bar
same,Acetate (NMR),[10],5067 mg/L
same,Ethanol (NMR),[10],150 mg/L
same,OD600,[10],0.22
same,Δp,[10],0.3 bar
